Laboratory results published in patent US8937096B2, “Use of benzo-fused heterocyle sulfamide derivatives for the treatment of mania and bipolar disorder” (priority 2005, dated 2015).

Assays:
[1] = tested on: hippocampal kindled seizures; assay: Rat Hippocampal Kindling Test (Interruption of Kindled State); format: in vivo; conditions: reference drugs; suppression at doses associated with toxicity
Protocol: In the present rapid hippocampal kindling model adult male Sprague-Dawley rats (300-400 g) were surgically implanted with bipolar electrodes placed in the hippocampus. […] One week later, the rats received 2-3 supra-threshold stimulations delivered every 30 min before treatment with test compound, to ensure stability of the behavioral seizure stage and after-discharge duration. Fifteen minutes after the last stimulation, a single dose of vehicle or test compound was administered i.p. (intraperitoneally). After 15 min, each rat was then stimulated every 30 min for 3 to 4 h. After each stimulation, individual seizure scores and after-discharge durations were recorded. The group mean±SEM were calculated for each parameter. Eight rats per dose and a minimum of four doses were used to establish an ED50 value. Efficacy was measured as the ability of a compound to modify the seizure score (severity of spread) and after-discharge duration (ADD; excitability) of the generalized seizures.
Thus, according to the theories presented in current literature (Ghaemi, S. N., Boiman, E. E., and Goodwin, F. K., Soc. of Bio. Psychiatry, (1999), vol. 45, pp 137-144; Stoll, A. L., and Severus, W. E., Harvard Rev. Psychiatry, July/August (1996), Vol. 4, No. 2, pp 77-89) a decrease in seizure score and/or ADD may also be predictive of the ability of a test compound to treat the cycling associated with bipolar disorder.

[2] = Median toxic dose (TD50) / toxic doses of Compound #8 and reference drugs; conditions: rat, in vivo
Wistar rats = assay: Chronic Mild Stress Model (Chronic); format: in vivo, rat; conditions: stressed animals; i.p. once daily
Text: In the chronic mild stress (CMS) model rats subjected to a variety of mild stressors for a prolonged period of time show, among other behavioral, biochemical and physiological impairments, a substantial decrease in their responsiveness to rewarding stimuli. This deficit is usually monitored by a decrease in the consumption of the 1% sucrose solution, but can also be seen in other tests, such as place preference conditioning or intracranial self-stimulation. Since the subsensitivity to reward appears to reflect anhedonia (inability to experience pleasure), which is a core symptom of major depressive disorders, the CMS procedure may serve as a suitable research tool in studies into the mechanisms of antidepressant action.
Male Wistar rats were brought into the laboratory two months before the start of the experiment. Except as described below, the animals were singly housed with food and water freely available, and were maintained on a 12-h light/dark and in a constant temperature (22±2° C.) and humidity (50±5%) conditions.
The animals were first trained to consume a 1% sucrose solution; training consisted of eight 1 h baseline tests in which sucrose was presented, in the home cage, following 14 h food and water deprivation; the sucrose intake was measured by weighing pre-weighed bottles containing the sucrose solution, at the end of the test. Subsequently, sucrose consumption was monitored, under similar conditions, at weekly intervals throughout the whole experiment.
On the basis of their sucrose intakes in the final baseline test, the animals were divided into two matched groups. One group of animals was subjected to the chronic mild stress procedure for a period of 7 consecutive weeks. […]
All results obtained in this study were analyzed by multiple analyses of variance with three between-subjects factors (stress/control, drug treatments and successive sucrose tests). […]

[3] = tested on: stressed and non-stressed animals; assay: Resident/Intruder Assay (Chronic Social Stress Assay); format: in vivo; set-up: Locomotor Mean ± SD / Rearing Mean ± SD / Sniffing Down Mean ± SD / Sniffing Up Mean ± SD: unit not given here; conditions: 10 mg/kg p.o.
Text: The behavioral resident/intruder assay is used to screen compounds for anti-depressant-like activity.

[4] = tested on: hippocampal kindled seizures; conditions: rat, in vivo; cited from earlier work
[5] = tested on: amygdala kindled seizures; conditions: i.p.; cited from earlier work

With `NS(=O)(=O)NCC1CCc2ccccc2O1` (stereo not drawn) the melting point was 100 to 101 °C.

For `CCCC(CCC)C(=O)O` [Valproic acid, reference compound], the “seizure activity in the hippocampal kindling model” value [1] was “significantly suppressed seizure activity” and the toxic doses [2] was greater than 300 mg/kg.

With `CN(C)CCCN1c2ccccc2CCc2ccccc21` [Imipramine, imipramine, reference compound] the “treatment time after which increases in sucrose intake in stressed animals reached statistical significance vs Week 0” value (Wistar rats) was “four weeks”, the “Forced Swim Test: Immobility during 5 min: Week 5 Mean ± SD” value ([3]; non-stressed) was 125.3 ± 50.1 and the “Sucrose Intake Mean ± SD Week 3” value ([3]; non-stressed) was 87.9 ± 2.7. For the same compound, the “Sucrose Intake Mean ± SD Week 4” value ([3]; non-stressed) was 89.7 ± 5.3, the “Sucrose Intake Mean ± SD Week 5” value ([3]; non-stressed) was 91.0 ± 3.7 and the “Locomotor Mean ± SD” value ([3]; non-stressed, week 1) was 8162.8 ± 929.9. For the same compound, the “Rearing Mean ± SD” value ([3]; non-stressed, week 1) was 51.5 ± 12.6, the “Sniffing Down Mean ± SD” value ([3]; non-stressed, week 1) was 25.8 ± 4.9 and the “Rearing Mean ± SD” value ([3]; non-stressed, week 5) was 42.1 ± 2.9. The “Sniffing Down Mean ± SD” value ([3]; non-stressed, week 5) was 26.4 ± 5.2, the “Sniffing Up Mean ± SD” value ([3]; non-stressed, week 5) was 37.5 ± 2.1 and the “Forced Swim Test: Immobility during 5 min: Week 5 Mean ± SD” value ([3]; stressed) was 157.5 ± 71.6. For the same compound, the “Sucrose Intake Mean ± SD Week 3” value ([3]; stressed) was 70.5 ± 19.5, the “Sucrose Intake Mean ± SD Week 4” value ([3]; stressed) was 78.3 ± 15.1 and the “Sucrose Intake Mean ± SD Week 5” value ([3]; stressed) was 73.6 ± 19.4. The “Locomotor Mean ± SD” value ([3]; stressed, week 1) was 6037.8 ± 1382.8, the “Rearing Mean ± SD” value ([3]; stressed, week 1) was 30 ± 9.5 and the “Sniffing Down Mean ± SD” value ([3]; stressed, week 1) was 14.4 ± 4.4. The “Sniffing Up Mean ± SD” value ([3]; stressed, week 1) was 27.5 ± 7.9, the “Locomotor Mean ± SD” value ([3]; stressed, week 5) was 5642.8 ± 998.6 and the “Rearing Mean ± SD” value ([3]; stressed, week 5) was 27.8 ± 7.4. For the same compound, the “Sniffing Down Mean ± SD” value ([3]; stressed, week 5) was 17.3 ± 3.4 and the “Sniffing Up Mean ± SD” value ([3]; stressed, week 5) was 24.3 ± 5.1.

In the case of `Nc1nnc(-c2cccc(Cl)c2Cl)c(N)n1` [lamotrigine], the “protection against hippocampal kindled seizures” value [4] is given as “unable to protect”, the “ADD reduced by” value [5] is given as 62% and the “ED50 (amygdala kindled seizures)” value [5] is given as 25 mg/kg. For the same compound, the “amygdala kindled seizure score” value [5] was roughly 2.
